The subject of the test is trinitrobenzenesulfonic acid (TNBS)-induced inflammatory bowel disease model. As to the kind of experiment: Effect of HA on TNBS-induced inflammatory bowel disease model. The format is in vivo, rat. The procedure: An inflammatory bowel disease model was prepared by carrying out irrigation of colon of a rat with 0.5 ml of 50 mg/ml TNBS (50% ethanol solution). The TNBS-induced inflammatory bowel disease model is a generally used model which has been established as an induced inflammatory bowel disease model (e.g., see GASTROENTEROLOGY, Vol. 109, No. 4, pp. 1344-1367 (1995), and the like).
In order to examine effect of HA on inflammatory bowel diseases, the following drug effect and pharmacological test was carried out using the inflammatory bowel disease model prepared in the above.
The inflammatory bowel disease model animals were divided into the following groups according to respective tested substances, and 2 ml of physiological saline solution (0.3% (w/v)) of each of the following tested substances was injected into the tail vein of each experimental animal.
In the control group, the first administration was carried out just after the preparation of the above model, and then the administration was continuously carried out once a day for 20 days.
In the HA post-administered group, the first administration was carried out just after the preparation of the above model, and then the administration was continuously carried out once a day for 20 days.
In the HA pre-administered group, the first administration was carried out 24 hours before the preparation of the above model, and then the administration was continuously carried out once a day for 20 days.
During the administration period of tested substances, surviving conditions of the animals were observed every day.
In addition, observation and measurement of the following points were carried out on the animals survived on the 20th day after the first administration.
Also, the following numerical values are expressed as “average value±standard error”.
The large intestine was excised and cut open, and the contents were washed using physiological saline. After the adhered moisture was removed, the weight of the large intestine tissue was measured to calculate the weight per 1 cm bowel tissue. Also, the following numerical values are expressed as “average value±standard error”.
Section samples of bowel tissue were prepared and observed under a light microscope.

The mark [1] stands for this setting: HA post-administered group in comparison with the control group, 20th day, light microscope, FIG. 3.

1 substance from patent US7354910B2, “Agent for treating inflammatory bowel diseases” (Seikagaku Kogyo Kabushiki Kaisha, priority 2001, dated 2008) can be followed below.

With sodium hyaluronate [HA], the conditions of diarrhea entry (HA administered groups, animals survived on the 20th day after the first administration, severe in control group) is listed as “hardly observed”. Moreover, under setting [1], the “cell infiltration, microscopic observation of bowel tissue” value was “inhibited significantly” and the “edema, microscopic observation of bowel tissue” value is “significantly alleviated”. The “body weight (average value±standard error)” value (HA post-administered group, 20th day after the first administration, control 175 ± 4 g, p<0.001) was found to be 203 ± 3 g. Further, where the note is “HA post-administered group, 20th day after the first administration, control 448 ± 60, p<0.001”, the “weight of the large intestine tissue per 1 cm bowel tissue (bowel tissue edema; average value±standard error)” value turned out to be 51 ± 1 mg/cm bowel tissue. Moreover, the survival ratio (HA pre-administered group (first administration 24 hours before model preparation, 2 ml of 0.3% (w/v) into tail vein once a day), after a lapse of 200 hours) is recorded as 100%. Moreover, for the setting “each of the HA administered groups (post and pre), 2 ml of 0.3% (w/v) i.v. once a day for 20 days, p=0.0086 Logrank test, FIG. 1”, the “survival rate in comparison with the control group” value is “significantly improved”.
